In patent publication US8207172B2 (Bayer Intellectual Property GmbH, priority 2004, dated 2012):
Counter-ions that a name gives are not always drawn.

Key:
[1] = tested on: A431 cells (human epidermoid carcinoma); experiment: In vitro tumor cell proliferation assay (Cell Titer-Glo luminescent cell viability), A431; type: cell-based; settings: A-431, 72 h, 72 hours of drug exposure, ATP luminescence readout, read-out: IC50, anti-proliferative activity (inhibition of cell proliferation)
Source text: (§1) In vitro Tumor Cell Proliferation Assay
(§2) The tumor cell proliferation assay used to test the compounds of the present invention involves a readout called Cell Titer-Glow® Luminescent Cell Viability Assay developed by Promega® (Cunningham, B A “A Growing Issue: Cell Proliferation Assays, Modern kits ease quantification of cell growth” The Scientist 2001, 15(13), 26, and Crouch, S P et al., “The use of ATP bioluminescence as a measure of cell proliferation and cytotoxicity” Journal of Immunological Methods 1993, 160, 81-88), that measures inhibition of cell proliferation. Generation of a luminescent signal corresponds to the amount of ATP present, which is directly proportional to the number of metabolically active (proliferating) cells.
(§3) A431cells (human epidermoid carcinoma, ATCC […]) and BT474 (human breast carcinoma, ATCC […]) were plated at a density of 2.5×10^3 cells/well in 96 well black-clear bottom tissue culture plates in RPMI media with 10% Fetal Bovine Serum and incubated at 37° C. Twenty-four hours later, test compounds are added at a final concentration range from as high […] to as low 64 pM depend on the activities of the tested compounds in serial dilutions at a final DMSO concentration of 0.1%. Cells were incubated for 72 hours at 37° C. in complete growth media after addition of the test compound. After 72 hours of drug exposure, the plates were equilibrated to room temperature for approximately 30 min. Then, using a Promega Cell Titer Glo Luminescent® assay kit, lysis buffer containing 100 microliters of the enzyme luciferase and its substrate, luciferin mixture, was added to each well. The plates were mixed for 2 min on orbital shaker to ensure cell lysis and incubated for 10 min at room temperature to stabilize luminescence signal. The samples were read on VICTOR 2 using Luminescence protocol, and analyzed with Analyze5 software to generate IC50 values.

[2] = tested on: BT474 (human breast carcinoma); experiment: In vitro tumor cell proliferation assay (Cell Titer-Glo luminescent cell viability), BT474; type: cell-based; settings: BT-474, 72 h, BT474 cells, 72 hours of drug exposure, ATP luminescence readout, read-out: IC50, anti-proliferative activity (inhibition of cell proliferation)
Source text: as §1, §2, §3

| SMILES | IC50 [1] [µM] | IC50 [2] [µM] |
| --- | --- | --- |
| Cc1cccc(COc2ccc(Nc3ncnc4sc5c(c34)CCc3nn(CCN4CCN(C)CC4)cc3-5)cc2Cl)n1 [Example 117, N-{3-chloro-4-[(6-methylpyridin-2-yl)methoxy]phenyl}-2-[2-(4-methylpiperazin-1-yl)ethyl]-4,5-dihydro-2H-pyrimido[5′,4′:4,5]thieno[2,3-e]indazol 6-amine] | ≤ 50 | ≤ 5 |
| O=C(O)Cn1ncc2c1CCc1c-2sc2ncnc(Nc3ccc(OCc4cccc(F)c4)c(Cl)c3)c12 [Example 191, [6-({3-chloro-4-[(3-fluorobenzyl)oxy]phenyl}amino)-4,5-dihydro-3H-pyrimido[5′,4′:4,5]thieno[2,3-e]indazol-3-yl]acetic acid] | ≤ 50 | ≤ 50 |
| CC(C)(C)OC(=O)N1CCC(CCn2cc3c(n2)CCc2c-3sc3ncnc(Nc4ccc(OCc5cccc(F)c5)c(Cl)c4)c23)CC1 [Example 246, tert-butyl 4-{2-[6-({3-chloro-4-[(3-fluorobenzyl)oxy]phenyl}amino)-4,5-dihydro-2H-pyrimido[5′,4′:4,5]thieno[2,3-e]indazol-2-yl]ethyl}piperidine-1-carboxylate] |  | ≤ 5 |
| CN(C)[C@H]1CCN(C[C@@H](O)Cn2cc3c(n2)CCc2c-3sc3ncnc(Nc4ccc(OCc5cccc(F)c5)c(Cl)c4)c23)C1 [Example 153, (2R)-1-[6-({3-chloro-4-[(3-fluorobenzyl)oxy]phenyl}amino)-4,5-dihydro-2H-pyrimido[5′,4′:4,5]thieno[2,3-e]indazol-2-yl]-3-[(3S)-3-(dimethylamino)pyrrolidin-1-yl]propan-2-ol trilfluoroacetate (salt)] |  | ≤ 1 |
| O=C(CCl)N1CCC(Cn2cc3c(n2)CCc2c-3sc3ncnc(Nc4ccc(OCc5cccc(F)c5)c(Cl)c4)c23)CC1 [Example 233, 2-{[1-(chloroacetyl)piperidin-4-yl]methyl}-N-{3-chloro-4-[(3-fluorobenzyl)oxy]phenyl}-4,5-dihydro-2H-pyrimido[5′,4′:4,5]thieno[2,3-e]indazol-6-amine trifluoroacetate] |  | ≤ 1 |
| Fc1cccc(COc2ccc(Nc3ncnc4sc5c(c34)CCc3nn(CCC4CCNCC4)cc3-5)cc2Cl)c1 [Example 247, N-{3-chloro-4-[(3-fluorobenzyl)oxy]phenyl}-2-(2-piperidin-4-ylethyl)-4,5-dihydro-2H-pyrimido[5′,4′:4,5]thieno[2,3-e]indazol-6-amine] |  | ≤ 1 |

Further lines, results first:

| IC50 [1] [µM] | IC50 [2] [µM] | SMILES |
| --- | --- | --- |
| ≤ 5 | ≤ 1 | Fc1cccc(Cn2ncc3cc(Nc4ncnc5sc6c(c45)CCc4n[nH]cc4-6)ccc32)c1 [Example 288, N-[1-(3-fluorobenzyl)-1H-indazol-5-yl]-4,5-dihydro-2H-pyrimido[5′,4′:4,5]thieno[2,3-e]indazol-6-amine] |
| ≤ 5 | ≤ 1 | OCCNCCn1ncc2c1CCc1c-2sc2ncnc(Nc3ccc(F)c(Cl)c3)c12 [Example 96, 2-[(2-{6-[(3-chloro-4-fluorophenyl)amino]-4,5-dihydro-3H-pyrimido[5′,4′:4,5]thieno[2,3-e]indazol-3-yl}ethyl)amino]ethanol] |
| ≤ 50 | ≤ 1 | CCOC(=O)Cn1cc2c(n1)CCc1c-2sc2ncnc(Nc3ccc(OCc4cccc(F)c4)c(Cl)c3)c12 [Example 174] |
| ≤ 5 | ≤ 1 | CN(C)[C@H]1CCN(C(=O)Cn2cc3c(n2)CCc2c-3sc3ncnc(Nc4ccc(OCc5cccc(F)c5)c(Cl)c4)c23)C1 [Example 177, N-{3-chloro-4-[(3-fluorobenzyl)oxy]phenyl}-2-{2-[(3S)-3-(dimethylamino)pyrrolidin-1-yl]-2-oxoethyl}-4,5-dihydro-2H-pyrimido[5′,4′:4,5]thieno[2,3-e]indazol-6-amine] |
| ≤ 50 | ≤ 1 | CN1CCN(C[C@@H](O)Cn2cc3c(n2)CCc2c-3sc3ncnc(Nc4ccc(OCc5cccc(F)c5)c(Cl)c4)c23)CC1 [Example 136, (2R)-1-[6-({3-chloro-4-[(3-fluorobenzyl)oxy]phenyl}amino)-4,5-dihydro-2H-pyrimido[5′,4′:4,5]thieno[2,3-e]indazol-2-yl]-3-(4-methylpiperazin-1-yl)propan-2-ol] |
